Test results as given in PMC6424980, “Distinct G protein-coupled receptor phosphorylation motifs modulate arrestin affinity and activation and global conformation” (Nature Communications, 2019).
“Also recorded” adds a separate entry of the source.

Key:
[1] = system: arrestin-1 mutants I72B and F197NBD with nonphosphorylated light-activated rhodopsin in ROS membranes; assay: Ternary complex formation (site-directed fluorescence and centrifugal pull-down); type: biochemical, bovine; conditions: 10 µM rhodopsin in ROS, 1 µM arrestin-1 I72B or F197NBD, 100 µM peptide, pH 7
From the text: Recombinant bovine arrestin-1 cloned into the pET15b vector was expressed and purified as described. The basic construct was a modified wild-type sequence that contained no native cysteines (C63A, C128S and C143A) nor tryptophans (W194F). Single cysteine residues were introduced by PCR at sites 72 or 197 as previously described. The I72C mutant was labeled with monobromobimane (Thermo Fisher) and is referred to as I72B. The F197C mutant was labeled with N,N′-Dimethyl-N-(Iodoacetyl)-N′-(7-Nitrobenz-2-Oxa-1,3-Diazol-4-yl)Ethylenediamine (IANBD amide, Thermo Fisher) and is referred to as F197NBD. Labeling was carried out as previously described[43],[61]. Both labeled mutants were assessed to be functionally similar to wild-type arrestin-1 using the Extra Meta II assay, which determines the ability of arrestin-1 to bind and stabilize the active Meta II form of rhodopsin[64].
Under dim-red light, samples were prepared that contained nonphosphorylated rhodopsin (10 µM) in ROS membranes, 1 µM arrestin-1 I72B or F197NBD, ±100 µM peptide in 50 mM HEPES, 130 mM NaCl, pH 7 (150 or 200 µl sample volume). One hundred microliters of the sample was used for fluorescence measurements, and the remainder was used for the centrifugal pull-down assay (50 µl per assay). Steady-state fluorescence measurements were performed using a SPEX Fluorolog (1680) instrument in front-face mode. Bimane fluorescence was recorded using an excitation wavelength of 400 nm and emission 424–600 nm, and NBD fluorescence was recorded using an excitation wavelength of 500 nm and emission 524–660 (2 nm step size, 0.5 s integration per point). Excitation slits were narrowed to 0.1−0.2 nm to minimize light-activation of rhodopsin, and emission slits were set at 4 nm. Pull-down analysis was performed by centrifuging samples at 16,000 × g for 10 min at 20 °C. Selected samples were light activated (>495 nm) for 15 s prior to centrifugation (appr. 60 s delay time). Following centrifugation, the supernatants were removed, and the pellets were solubilized in loading buffer containing 2% SDS and subjected to SDS PAGE. Bands were visualized using Coomassie Brilliant Blue.

arrestin-2 = assay: Fluorescence anisotropy binding of fluorescein-labelled peptides to arrestin-2; design: species or system human
From the text: Synthesized cDNAs of bovine arrestin-1, human arrestin-2 and human arrestin-3 were ordered from Genewiz, amplified by PCR and cloned (Supplementary Information Table 5) into the pET-15b vector (Novagen), using the Gibson Assembly protocol. The constructs contained an N-terminal hexa histidine tag linked by a linker that contained a Tobacco Etch Virus cleavage site (TEV; […]). PCR was used to introduce the monomerizing arrestin-1 mutations (F85A, F197A)[58]. Note that this mutant was employed for fluorescence anisotropy, trypsin digestion, and NMR experiments. Wild-type arrestin-2 and -3 were used for fluorescence anisotropy and trypsin digestion experiments. […] The arrestin-1 in this construct had the wild-type sequence. Note that this construct differs slightly from that previously published[59],[60] and was optimized for purification. We verified the functionality of this fusion construct using the standard centrifugal pull-down assay using phosphorylated rhodopsin in native ROS membranes.
0.1–0.2 mg of lyophilized peptide was dissolved in 50 µl of 50 mM phosphate-buffered saline (PBS) buffer at pH 7.0, and then two molar equivalents of fluorescein-5-maleimide dye stock dissolved in dimethylsulfoxid was added. The reaction was carried out at RT in the dark. […] It was dissolved in 50 µl of 20 mM Bis-Tris propane pH 7.0 and 150 mM NaCl and its concentration was determined by absorbance. […]

CDDEASTTVSKTETSQVAPA [5P, multiply phosphorylated rhodopsin C-terminus peptide lacking key site pS343]
ternary complex formation (arrestin-1, nonphosphorylated rhodopsin, peptide) [1]: significant reduction of ternary complex formation; also recorded: could still stimulate ternary complex formation | binding to arrestin-2 (in words) (arrestin-2): bound well
